Assays:
Type in all cases: in vivo
[1] = tested on: foxtail, green (Setaria viridis); assay: Test A pre-/postemergence greenhouse test
Text: (§1) Seeds of plant species selected from barnyardgrass (Echinochloa crus-galli), kochia (Kochia scoparia), ragweed (common ragweed, Ambrosia elatior), ryegrass, Italian (Lolium multiflorum), foxtail, giant (Setaria faberii), foxtail, green (Setaria viridis) and pigweed (Amaranthus retroflexus) were planted into a blend of loam soil and sand and treated preemergence with a directed soil spray using test chemicals formulated in a non-phytotoxic solvent mixture which included a surfactant.
(§2) At the same time, plants selected from these weed species and also wheat (Triticum aestivum), corn (Zea mays), blackgrass (Alopecurus myosuroides) and galium (catchweed bedstraw, Galium aparine) were planted in pots containing the same blend of loam soil and sand and treated with postemergence applications of test chemicals formulated in the same manner. Plants ranged in height from 2 to 10 cm and were in the one- to two-leaf stage for the postemergence treatment. Treated plants and untreated controls were maintained in a greenhouse for approximately 10 d, after which time all treated plants were compared to untreated controls and visually evaluated for injury. Plant response ratings, summarized in Table A, are based on a 0 to 100 scale where 0 is no effect and 100 is complete control. A dash (-) response means no test result.

[2] = tested on: foxtail, giant (Setaria faberii); assay: Test A pre-/postemergence greenhouse test
Text: as §1, §2

[3] = tested on: corn (Zea mays); assay: Test E pre-/postemergence greenhouse test
Text: (§3) Seeds of plant species selected from corn (Zea mays), soybean (Glycine max), velvetleaf (Abutilon theophrasti), lambsquarters (Chenopodium album), poinsettia, wild (Euphorbia heterophylla), pigweed, palmer (Amaranthus palmeri), waterhemp (common waterhemp, Amaranthus rudis), surinam grass (Brachiaria decumbens), crabgrass, large (Digitaria sanguinalis), crabgrass, Brazil (Digitaria horizontalis), panicum, fall (Panicum dichotomiflorum), foxtail, giant (Setaria faberii), foxtail, green (Setaria viridis), goosegrass (Eleusine indica), johnsongrass (Sorghum halepense), ragweed (common ragweed, Ambrosia elatior), barnyardgrass (Echinochloa crus-galli), sandbur (southern sandbur, Cenchrus echinatus), arrowleaf sida (Sida rhombifolia), ryegrass, Italian (Lolium multiflorum), dayflower, VA (Virginia (VA) dayflower, Commelina virginica), field bindweed (Convolvulus arvensis), morningglory (Ipomoea coccinea), horseweed (Conyza canadensis), kochia (Kochia scoparia), nutsedge, yellow (Cyperus esculentus) and hairy beggarticks (Bidenspilosa), were planted into a silt loam soil and treated preemergence with test chemicals formulated in a non-phytotoxic solvent mixture which included a surfactant.
(§4) At the same time, plants selected from these crop and weed species and also waterhemp_RES1, (ALS & Triazine resistant common waterhemp, Amaranthus rudis), and waterhemp_RES2, (ALS & HPPD resistant common waterhemp, Amaranthus rudis) were planted in pots containing Redi-Earth® planting medium (Scotts Company, 14111 Scottslawn Road, Marysville, Ohio 43041) comprising spaghnum peat moss, vermiculite, wetting agent and starter nutrients were treated with postemergence applications of test chemicals formulated in the same manner. Plants ranged in height from 2 to 18 cm for postemergence treatments (1- to 4-leaf stage). Treated plants and controls were maintained in a greenhouse for 14 to 21 d, after which time all species were compared to controls and visually evaluated. Plant response ratings, summarized in Table E, are based on a scale of 0 to 100 where 0 is no effect and 100 is complete control. A dash (-) response means no test result.

[4] = tested on: waterhemp (common waterhemp, Amaranthus rudis); assay: Test E pre-/postemergence greenhouse test
Text: as §3, §4

[5] = tested on: crabgrass, large (Digitaria sanguinalis); assay: Test E pre-/postemergence greenhouse test
Text: as §3, §4

[6] = tested on: barnyardgrass (Echinochloa crus-galli); assay: Test E pre-/postemergence greenhouse test
Text: as §3, §4

[7] = tested on: panicum, fall (Panicum dichotomiflorum); assay: Test E pre-/postemergence greenhouse test
Text: as §3, §4

[8] = tested on: foxtail, giant (Setaria faberii); assay: Test E pre-/postemergence greenhouse test
Text: as §3, §4

Cc1ccc2ccc(Cl)cc2c1-c1c(O)c(Cl)nn(C)c1=O [Cpd. No. 22] was tested, and the “Plant response rating (0 to 100 scale)” value ([1]; Postemergence, 31 g ai/ha) was 100, the “Plant response rating (0 to 100 scale)” value ([1]; Postemergence, 125 g ai/ha) was 100 and the “Plant response rating (0 to 100 scale)” value ([1]; Preemergence, 31 g ai/ha) was 90. For the same compound, the “Plant response rating (0 to 100 scale)” value ([1]; Preemergence, 125 g ai/ha) was 100.
In the case of Cc1cc(Cl)c2ccccc2c1-c1c(O)c(Cl)nn(C)c1=O [Cpd. No. 65], the “Plant response rating (0 to 100 scale)” value ([2]; Postemergence, 31 g ai/ha) is reported as 100, the “Plant response rating (0 to 100 scale)” value ([2]; Postemergence, 125 g ai/ha) is reported as 100 and the “Plant response rating (0 to 100 scale)” value ([2]; Preemergence, 31 g ai/ha) is reported as 100. The “Plant response rating (0 to 100 scale)” value ([2]; Preemergence, 125 g ai/ha) was 100, the “Plant response rating, Corn” value ([3]; Postemergence, 16 g ai/ha) was 0 and the “Plant response rating, Corn” value ([3]; Postemergence, 31 g ai/ha) was 20. For the same compound, the “Plant response rating, Corn” value ([3]; Postemergence, 62 g ai/ha) was 23, the “Plant response rating, Corn” value ([3]; Postemergence, 125 g ai/ha) was 35 and the “Plant response rating, Corn” value ([3]; Preemergence, 16 g ai/ha) was 0. For the same compound, the “Plant response rating, Corn” value ([3]; Preemergence, 31 g ai/ha) was 5, the “Plant response rating, Corn” value ([3]; Preemergence, 62 g ai/ha) was 20 and the “Plant response rating, Corn” value ([3]; Preemergence, 125 g ai/ha) was 43. The “Plant response rating, Waterhemp” value ([4]; Postemergence, 16 g ai/ha) was 83, the “Plant response rating, Waterhemp” value ([4]; Postemergence, 31 g ai/ha) was 88 and the “Plant response rating, Waterhemp” value ([4]; Postemergence, 62 g ai/ha) was 99. The “Plant response rating, Waterhemp” value ([4]; Postemergence, 125 g ai/ha) was 97, the “Plant response rating, Waterhemp” value ([4]; Preemergence, 16 g ai/ha) was 75 and the “Plant response rating, Waterhemp” value ([4]; Preemergence, 31 g ai/ha) was 90. For the same compound, the “Plant response rating, Waterhemp” value ([4]; Preemergence, 62 g ai/ha) was 99, the “Plant response rating, Waterhemp” value ([4]; Preemergence, 125 g ai/ha) was 99 and the “Plant response rating, Crabgrass, Large” value ([5]; Postemergence, 16 g ai/ha) was 10. The “Plant response rating, Crabgrass, Large” value ([5]; Postemergence, 31 g ai/ha) was 13, the “Plant response rating, Crabgrass, Large” value ([5]; Postemergence, 62 g ai/ha) was 30 and the “Plant response rating, Crabgrass, Large” value ([5]; Postemergence, 125 g ai/ha) was 35. The “Plant response rating, Crabgrass, Large” value ([5]; Preemergence, 16 g ai/ha) was 45, the “Plant response rating, Crabgrass, Large” value ([5]; Preemergence, 31 g ai/ha) was 18 and the “Plant response rating, Crabgrass, Large” value ([5]; Preemergence, 62 g ai/ha) was 38. For the same compound, the “Plant response rating, Crabgrass, Large” value ([5]; Preemergence, 125 g ai/ha) was 48, the “Plant response rating, Barnyardgrass” value ([6]; Postemergence, 16 g ai/ha) was 80 and the “Plant response rating, Barnyardgrass” value ([6]; Postemergence, 31 g ai/ha) was 88. For the same compound, the “Plant response rating, Barnyardgrass” value ([6]; Postemergence, 62 g ai/ha) was 93, the “Plant response rating, Barnyardgrass” value ([6]; Postemergence, 125 g ai/ha) was 95 and the “Plant response rating, Barnyardgrass” value ([6]; Preemergence, 16 g ai/ha) was 0. The “Plant response rating, Barnyardgrass” value ([6]; Preemergence, 31 g ai/ha) was 40, the “Plant response rating, Barnyardgrass” value ([6]; Preemergence, 62 g ai/ha) was 38 and the “Plant response rating, Barnyardgrass” value ([6]; Preemergence, 125 g ai/ha) was 60. The “Plant response rating, Panicum, Fall” value ([7]; Postemergence, 16 g ai/ha) was 80, the “Plant response rating, Panicum, Fall” value ([7]; Postemergence, 31 g ai/ha) was 88 and the “Plant response rating, Panicum, Fall” value ([7]; Postemergence, 62 g ai/ha) was 93. For the same compound, the “Plant response rating, Panicum, Fall” value ([7]; Postemergence, 125 g ai/ha) was 93, the “Plant response rating, Panicum, Fall” value ([7]; Preemergence, 16 g ai/ha) was 75 and the “Plant response rating, Panicum, Fall” value ([7]; Preemergence, 31 g ai/ha) was 99. The “Plant response rating, Panicum, Fall” value ([7]; Preemergence, 62 g ai/ha) was 100, the “Plant response rating, Panicum, Fall” value ([7]; Preemergence, 125 g ai/ha) was 99 and the “Plant response rating, Foxtail, Giant” value ([8]; Postemergence, 16 g ai/ha) was 70. The “Plant response rating, Foxtail, Giant” value ([8]; Postemergence, 31 g ai/ha) was 88, the “Plant response rating, Foxtail, Giant” value ([8]; Postemergence, 62 g ai/ha) was 90 and the “Plant response rating, Foxtail, Giant” value ([8]; Postemergence, 125 g ai/ha) was 95. For the same compound, the “Plant response rating, Foxtail, Giant” value ([8]; Preemergence, 16 g ai/ha) was 5, the “Plant response rating, Foxtail, Giant” value ([8]; Preemergence, 31 g ai/ha) was 78 and the “Plant response rating, Foxtail, Giant” value ([8]; Preemergence, 62 g ai/ha) was 90. The “Plant response rating, Foxtail, Giant” value ([8]; Preemergence, 125 g ai/ha) was 100.

— patent publication US12435044B2, “Pyridazinone herbicides and pyridazinone intermediates used to prepare a herbicide” (FMC Corporation, priority 2018, dated 2025)
